# Experiment: Human HepG2 cell viability assay in 384 well format
# Format: toxicity, cell-based
# Set-up: dose 125 nL, time 70.5 hour; concentration not given beside the values
# Conditions: HepG2 cells, read-out: Inhibition
row,SMILES,cytotoxicity at 70.5 h
1,CCn1ncnc1C1CC(=O)NCc2nc(N3CCCC3)sc21 (configuration not stated),-21.6%
2,CC(C)(NCc1cccc(C#N)c1)c1ccc2c(c1)OCO2,-9.81%
3,O=C(NC1CCCC1)c1cc(Sc2ncccn2)ccn1,-13.6%
4,O=C1CCC(=O)c2oc3ccccc3c2N1,-5.85%
5,CCC(=O)N1CSCC1C(=O)Nc1ccccc1-c1cccs1 (configuration not stated),-9.09%
6,COc1cc(C)nc(N2CCN(C(=O)CCc3cccs3)CC2)n1,-6.26%
7,c1cc(-c2noc([C@@H]3CCCN3CC3CC3)n2)cc(N2CCCC2)n1,-11.8%
8,CC(C)(C)c1cc2ncn(CCCN3CCCCC3CO)c(=O)c2s1 (configuration not stated),-14.7%
9,Cc1noc(C)c1C(=O)N1CCC(n2cccn2)CC1,-3.66%
10,O=C(Cc1ccccc1)N1CCC2(CC1)CN(c1ncccn1)CCO2,-9.68%
11,COC(=O)CNC(=O)CCc1cc(Cl)cs1,6.93%
12,Cc1ccccc1CN1CCC2(COCc3cnc(N(C)C)nc32)C1 (configuration not stated),0.683%
13,CCOC(=O)c1sc2ccsc2c1CNC(=O)CCOC,16.3%
14,COc1ccc(CNCC2CCN(CC(C)O)CC2)c2ccccc12 (configuration not stated),29.8%
15,COC1COC2(CCN(Cc3ccccc3F)CC2)C1 (configuration not stated),-8.4%
16,CCC[C@@H]1CN(C(=O)c2c(F)ccc(C)c2Cl)C[C@H]1C(=O)O,0.166%
17,Cc1nc(-c2ccsc2)ccc1C(=O)NCCN1CCOCC1,0.983%
18,CC(O)(CNC(=O)NCc1cccc(-n2cncn2)c1)c1ccco1 (configuration not stated),7.59%
19,Cc1c(C(=O)N2CCCC2c2cnn(C)c2)cnn1-c1ccccc1 (configuration not stated),17.9%
20,Cc1ccc(C(=O)N2CCC(C(F)(F)F)CC2)cc1N1CCNC1=O,4.91%
21,N#Cc1ccc(F)c(CN(CC(=O)N2CCCC2)CC2CCCO2)c1 (configuration not stated),0.0703%
22,Cn1c(=O)n(C)c2nc(Br)c(CC(=O)c3ccccc3)n2c1=O,-4.55%
23,Cc1cc(C(=O)N2CCc3c(nc(-c4ccncc4)[nH]c3=O)C2)no1,2.99%

row,SMILES,cytotoxicity at 70.5 h
1,CCCc1noc(CCC(=O)NC(C)c2nnc3n2CCCCC3)n1 (configuration not stated),-9.55%
2,CC(C)(NCC(=O)NCCC#N)c1ccc2c(c1)OCCO2,-10.6%
3,CCc1nnc2n1CCN(Cc1cc(Cl)c3c(c1)OCCCO3)C2,0.524%
4,CCC[C@@H]1CN(Cc2cc3c(cc2OC)OCO3)C[C@H]1C(=O)O,-2.47%
5,O=c1c2ccccc2nc2n1C(CSc1ccc(Cl)cc1)CN2 (configuration not stated),2.49%
6,Cc1cnn(CCC(=O)Nc2ccc(F)cc2OCC2CC2)c1,-12.1%
7,OC1(CN2CCCC2)COCCN(c2noc(-c3ccccc3)n2)C1 (configuration not stated),-11%
8,Cc1nn(CC(C)C)c(N(C)C)c1CNCc1cccc2c1OCO2,10.6%
9,O=C(O)Cn1ccc2c(Cl)cccc21,-1.23%
10,COc1ccc(-c2n[nH]cc2CN(C)CCC2CCOCC2)cc1F,-1.66%
11,CN(C)CCNC(=O)CCC1CCN(C(=O)c2ccc(Cl)cc2O)CC1,-8.44%
12,O=C(c1ccco1)N1C[C@H]2CCCN(C(=O)c3ccsc3)[C@H]2C1,-16.2%
13,O=C1CC2(CCN(Cc3ccncc3)C2)CN1c1ccc2c(c1)OCO2 (configuration not stated),30%
14,CN(C)c1cccc(CNCc2ccc(N3CCOCC3)cc2)c1,14%
15,CC(C)c1noc(C(C)N2CCN(Cc3noc(C(C)(C)C)n3)CC2)n1 (configuration not stated),-3.35%
16,CN(CCCOc1ccccc1)Cc1nc2c(cnn2C)c(=O)[nH]1,-1.06%
17,CO[C@H]1CN(C(=O)c2ccccn2)[C@@H]2CCCO[C@H]12,-14.9%
18,Cc1cc(=O)n(CC(=O)NCC2CCCO2)c(-c2cccc(Cl)c2)n1 (configuration not stated),-2.89%
19,Cc1cc(C(=O)O)cc(S(=O)(=O)Nc2ccc3c(c2)OCCCO3)c1C,-5.74%
20,CC(C)[C@@H](CO)Nc1cc(-c2cn[nH]c2)ncn1,0.985%
21,CN(CCc1ccccn1)[C@@H]1CCN(c2cc(C(N)=O)ccn2)C[C@H]1O,-3.34%
22,O=C(NS(=O)(=O)c1cccc(C(F)(F)F)c1)c1cnsn1,-5.69%
23,Cc1occc1C(=O)N1CCCC2(CCN(CCN3CCCC3)C2=O)C1 (configuration not stated),-11.9%

row,SMILES,cytotoxicity at 70.5 h
1,COCCN1CCC2(CCCN(C(=O)c3cncn3C)C2)CC1,-3.6%
2,CC(=O)N1Cc2ccccc2CC2(CCCCN2C)C1 (configuration not stated),21.1%
3,CC1CCc2nc(O)c(C(=O)NCc3ccccn3)cc2C1 (configuration not stated),-5.86%
4,Cc1nc(-c2cccc(N3CCC(NC4CCOCC4)CC3)c2)cs1,-3.92%
5,COCCn1cc(C(=O)N2CCCC(n3cncn3)C2)ccc1=O (configuration not stated),8.17%
6,CCCC(=O)N(C)c1cc(C#N)c2ccccc2n1,-2.82%
7,CSc1nccc(NCc2cc3n(n2)CCCN(C(=O)C2CCC2)C3)n1,22.4%
8,Cc1nnc(CN2C[C@H](NC(=O)C3CCOCC3)[C@@H](C(C)C)C2)s1,-6.56%
9,COc1ccc(CCNC(=O)C2CCCOC2)c(Cl)c1 (configuration not stated),3.61%
10,CCOCC1CC2(CCN(C(=O)CC3=CCCCC3)CC2)CO1 (configuration not stated),1.88%
11,COc1ccc(-n2cccn2)cc1S(=O)(=O)N1C[C@H](C2CC2)[C@@H](N)C1,-3.3%
12,CCNC(=O)[C@@H]1C[C@H](NC(=O)Cc2ccsc2)CN1Cc1ccc(C)o1,-8.83%
13,Cc1ccc(CN2CCC(NC(=O)c3scnc3C)CC2)cc1,3.8%
14,CNc1cncc(C2CCN(S(C)(=O)=O)CC2)n1,-2.96%
15,Cc1ccc(-c2cc(N)c(=O)n(CC(=O)NC3CCCC3)n2)s1,13%
16,Cn1cc(CN2CC3(CCN(Cc4ccsc4)C3)C2)cn1,24.7%
17,Oc1ccccc1CN1C[C@H](O)C[C@H]1c1nc(Cc2ccccc2)no1,-6.19%
18,CCCOCC(=O)N1CCCN(Cc2csc(CC)n2)CC1,6.02%
19,O=S(=O)(c1ccc2c(c1)OCCO2)N1CCC(OCc2ccccn2)C1 (configuration not stated),-8.08%
20,O=C1NCCN1C1CCN(CCOc2cccc3ccccc23)CC1,0.611%
21,Cc1cc(C(C)C(=O)N2CCCN(Cc3cscn3)CC2)c(C)o1 (configuration not stated),18.7%
22,O=C(Nc1cccc(CN2CCOC2=O)c1)N1CCOCC1,-3.32%
23,O=C(C1CCCO1)N1CCCn2c(nnc2Cn2ccnc2)C1 (configuration not stated),-7.67%

row,SMILES,cytotoxicity at 70.5 h
1,CN(C)CCN1CC(C(=O)NCc2cccc(-n3cccn3)c2)CC1=O (configuration not stated),-0.603%
2,CC(C)c1nc(C2CCCN(C(=O)c3ccc4[nH]nnc4c3)C2)no1 (configuration not stated),-4%
3,COc1ccc(C(C)NCc2ccnn2C)cc1Cn1cccn1 (configuration not stated),-6.58%
4,COc1ccc(C(=O)N2CCO[C@H]3[C@H](OCC4CC4)CC[C@@H]32)cc1F,-12.7%
5,CN1CCN(c2cc(CNC(=O)c3ccc(Cl)o3)ccn2)CC1,-3.02%
6,Cc1cc(N2CCCC(O)(CN(C)C(=O)CCN)C2)c2cnccc2n1 (configuration not stated),26.9%
7,Cc1cccc(CN2CC[C@H]3[C@H]2CCN3C(=O)c2cnn(C)c2)n1,2.83%
8,COc1ccc(F)c(CN2CCCC3(CCN(C4CCOCC4)C3)C2)c1 (configuration not stated),-4.15%
9,CC1CCCCN1CCNC(=O)c1ccccc1N1CCOCC1 (configuration not stated),19%
10,O=C(NCC1CC1)N1CCN(Cc2ccc3c(c2)OCCO3)CC1,2.86%
11,COc1cccc(CNC2CCCOc3cc(C)ccc32)n1 (configuration not stated),-9.25%
12,COc1c(Br)cccc1CCNC(=O)c1csnn1,-11.9%
13,O=C(c1ccc[nH]1)N1CCCn2cnc(COCC3CC3)c2C1,-9.86%
14,CCc1c(C(=O)N2CCOC(C)(C)C2)cnn1-c1ccccn1,-2.04%
15,CSc1cccc(CN2CCC(CCC(=O)Nc3ccccc3)CC2)c1,-8.78%
16,Cc1ccc(C2CN(Cc3cccc4[nH]ccc34)CCO2)nc1 (configuration not stated),46%
17,CCN(CC)C(=O)c1cnc(Sc2nccn2C)c(Cl)c1,-3.32%
18,Cc1[nH]c2c(F)cccc2c1CC(=O)NC1CCCCNC1=O (configuration not stated),24.9%
19,C[C@H]1C[C@H]2CN(C(=O)C3=CCCCC3)CC[C@H]2O1,-2.58%
20,Cc1noc(-c2cnc(NC3CC3)nc2-c2ccco2)c1C,-14.9%
21,O=c1n(CCNc2cccc3ccccc23)nc2ccccn12,4.9%
22,CN(C)CC1CN(CCOc2cccc(C#N)c2)CCO1 (configuration not stated),0.102%
23,CC(Cc1ccc(Cl)cc1)NC(=O)Nc1cnn(CC(N)=O)c1 (configuration not stated),-8.4%

row,SMILES,cytotoxicity at 70.5 h
1,CC(C)CCNc1c(C#N)c2c(c3nncn13)CN(C)CC2,-3.96%
2,O=C(NCC1=CCCCC1)C(c1cccnc1)N1CCCC1 (configuration not stated),31.3%
3,C[C@@H]1CN(C(=O)c2nc3ccc(Cl)cn3c2-c2ncc[nH]2)C[C@H](C)O1,-14.7%
4,Cc1occc1C(=O)N1C[C@@H](OCc2cccnc2)[C@H]2OCCC[C@@H]21,-21.3%
5,CC[C@H]1CN(C(=O)C2CC2)CC[C@H]1CC(=O)NCCN1CCOCC1,-0.373%
6,CCC(=O)Nc1nnc(CCOc2ccccc2)s1,-2.19%
7,O=C1CC[C@H]2[C@H](CCN2c2ncc(F)cn2)N1c1cccnc1,-6.96%
8,Cc1ccc(CN2CCC3(CCCN(Cc4ccc(F)c(F)c4)C3)C2)o1 (configuration not stated),0.359%
9,COc1cc(CO)ccc1OCc1nc(C(C)C)no1,-3.56%
10,COCCCOc1ccc(C(=O)N(C)CCC(C)C)cn1,20.8%
11,COC(=O)[C@H](C)NC(=O)Cc1c(C)nc2c(c1C)c(=O)[nH]n2C,-2.82%
12,Cc1ccc2[nH]c(C3CCN(C)CC3)nc2c1,12.7%
13,CC(Cn1cccn1)NC(=O)NCc1ccc(S(N)(=O)=O)cc1 (configuration not stated),-7.93%
14,COc1c(CNCc2cccc(CN3CCOCC3)c2)c(C)nn1C,-10.7%
15,CC(C)C(NC(=O)c1ccc(Cl)cc1Cl)C(=O)Nc1ccn(C)n1 (configuration not stated),1.6%
16,O=c1c2cccnc2cnn1CC(O)c1cccc(Cl)c1 (configuration not stated),13.3%
17,O=C(CCc1nc2cc(Br)cnc2[nH]1)NCCN1CCOCC1,-10.2%
18,O=C(CNc1cc(Br)ccc1Br)NC1CCS(=O)(=O)C1 (configuration not stated),-14.1%
19,CC(C)(NC(=O)c1ccc(-c2ccc(F)cc2)s1)C(N)=O,4.62%
20,CC(C)=CCN1CCN(C(=O)C2CCS(=O)(=O)C2)CC1 (configuration not stated),0.157%
